In PubChem BioAssay AID1963430 (Molecular Pharmacology Branch, DTP, NCI, 2024):

Test system: 521955-158-R2-J5-PDC complex spheroid growth, % test/control
Assay: Anticancer human tumor 521955-158-R2-J5-PDC patient-derived pancreatic carcinoma cell line growth inhibition [Asc]
Conditions: for IC50: curve of first compound; for viability, T/C: stronger effect = lower value
Experimental: Multicellular complex tumor spheroid response to apoptosis pathway targeting inhibitors Alrizomadlin, Pelcitoclax, and Dasminapant in combination with a variety of drugs and investigational agents in selected tumor cell lines
The MDM2 inhibitor alrizomadlin, the Bcl-2/Bcl-xL inhibitor pelcitoclax, and the IAPs inhibitor dasminapant were evaluated both individually and in combination with standard of care and investigational anticancer small molecules within a complex spheroid model of solid tumors. . Complex spheroids include a stromal component modeled by human endothelial cells (HUVEC) and fibroblasts modeled by human mesenchymal stem cells (MSCs). The concentration ranges selected for each drug and investigational agent were based upon clinically achievable concentrations if the clinical Cmax of the agent was known.
Compounds. The drugs and investigational agents: alrizomadlin (APG-115; NSC831270), pelcitoclax (APG-1252; NSC835773), dasminapant (APG-1387;NSC834197), TAK-243 (NSC785004), copanlisib (NSC809693), olaparib (NSC753686), talazoparib (NSC767125), cobimetinib (NSC 768068), eltanexor (KPT-8602, NSC 794443), abemaciclib (NSC 768073), sotorasib (NSC818433), adagrasib (NSC 831453), MRTX-1133 (NSC 836407), Iadademestat (ORY1001, NSC 806812), and RMC-4630 (NSC839698), were obtained from the NCI Developmental Therapeutics Program Chemical Repository. The FDA-approved anticancer drug set is available from the Developmental Therapeutics Program at https://dtp.cancer.gov/organization/dscb/obtaining/available plates.htm. […] The stock solutions were prepared in dimethyl sulfoxide (DMSO, Sigma-Aldrich, St. Louis, MO, cat. D2650) at 800-fold the tested concentration and stored at -70 degrees C prior to their use. All drugs and investigational agents were tested over a range starting from a high concentration at or near the clinical Cmax and decreasing in half-log increments. If the clinical Cmax for an agent had not been determined, the highest concentration tested was 10 microM.
The patient-derived cancer (PDC) cell lines include five colon adenocarcinomas: 186277-243-T-J2-PDC, 616215-338-R-J1-PDC, 439559-082-T-J2-PDC, 463943-066-T-J2-PDC, and 519858-162-T-J1-PDC; three pancreatic carcinomas: 323965-272-R-J2-PDC, 521955-158-R6-J3-PDC, and 521955-158-R2-J5-PDC; two uterine sarcomas: 327498-152-R-J2-PDC and 993429-296-R-J1-PDC; two rhabdomyosarcomas: 755483-174-R-J1-PDC and 772245-204-R-J1-PDC; two soft tissue sarcomas: 126254-015-R-J1-PDC and 494315-158-R-J1-PDC; two malignant fibrous histiocytomas: 317291-083-R-J1-PDC and 596521-263-R-J1-PDC; two breast carcinomas: 171881-019-R-J1-PDC and 885512-296-R-J2-PDC; and one ovarian carcinoma: 6556581-035-R-J-PDC were obtained from the NCI PDMR, (https://pdmr.cancer.gov). The established cell lines HSSY-2 synovial sarcoma (RRID:CVCL 8719), SYO-1 synovial sarcoma (RRID:CVCL_7146), MPNST malignant peripheral neural sheath tumor were obtained from the Sloan Kettering Institute. The following established cell lines were purchased from the American Type Culture Collection (ATCC, Manassas, VA), Sor the received from the NCI repository:, PANC-1 pancreatic carcinoma (CRL-1469, RRID:CVCL_0480), OVCAR-5 ovarian carcinoma (RRID:CVCL_1628), OVCAR-8 ovarian carcinoma (RRID:CVCL_1629), , MCF-7 breast carcinoma (CRL-12584, RRID:CVCL_0031), MDA-MB-231 breast carcinoma (CRL-12532, RRID:CVCL_0062), NCI-H1876 small cell lung carcinoma (CRL-5902, RRID:CVCL_1503), NCI-H510A small cell lung carcinoma (HTB-184, RRID:CVCL_1565), NCI-H1417 (CRL-5869, RRID:CVCL_1469), and NCI-H196 small cell lung carcinoma (CRL-5823, RRID:CVCL_1509). Dr. Peter Houghton (Greehey Children's Cancer Research Institute, University of Texas Health Science Center, San Antonio, TX) provided Rh-18 rhabdomyosarcoma (RRID:CVCL_1659). Pooled donor human umbilical vein endothelial cells (HUVEC, Lonza, cat. CC-2519) and human mesenchymal stem cells (hMSC, Lonza, cat. PT-2501) were purchased from Lonza (Walkersville, MD).
Cell Culture. […]

[1] = second compound 0.1 µM, first compound 0.00316 µM
[2] = second compound 0.1 µM, first compound 0.01 µM
[3] = second compound 0.1 µM, first compound 0.0316 µM
[4] = second compound 0.1 µM, first compound 0.1 µM
[5] = second compound 0.1 µM, first compound 0.316 µM
[6] = second compound 0.1 µM, first compound 1 µM
[7] = second compound 0.316 µM, first compound 0.00316 µM
[8] = second compound 0.316 µM, first compound 0.01 µM
[9] = second compound 0.316 µM, first compound 0.0316 µM
[10] = second compound 0.316 µM, first compound 0.1 µM
[11] = second compound 0.316 µM, first compound 0.316 µM
[12] = second compound 0.316 µM, first compound 1 µM
[13] = second compound 1 µM, first compound 0.00316 µM
[14] = second compound 1 µM, first compound 0.01 µM
[15] = second compound 1 µM, first compound 0.0316 µM
[16] = second compound 1 µM, first compound 0.1 µM
[17] = second compound 1 µM, first compound 0.316 µM
[18] = second compound 1 µM, first compound 1 µM
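Note: spheroids exposed to agents for 7 days before readout.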
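Throughout, for viability, T/C: 100% = DMSO vehicle control viability.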

IC50 (second compound 0.1 µM) | IC50 (second compound 0.316 µM) | IC50 (second compound 1 µM) | Compound | viability, T/C [1] | viability, T/C [2] | viability, T/C [3] | viability, T/C [4] | viability, T/C [5] | viability, T/C [6] | viability, T/C [7] | viability, T/C [8] | viability, T/C [9] | viability, T/C [10] | viability, T/C [11] | viability, T/C [12] | viability, T/C [13] | viability, T/C [14] | viability, T/C [15] | viability, T/C [16] | viability, T/C [17] | other results
14.5 nM | 26.6 nM | 15.8 nM | O=C(c1ccc(F)c(F)c1Nc1ccc(I)cc1F)N1CC(O)([C@@H]2CCCCN2)C1 + CNC(C)C(=O)NC1CN(S(=O)(=O)c2cccc(S(=O)(=O)N3CCC4CCC(C(=O)NC(c5ccccc5)c5ccccc5)N4C(=O)C(NC(=O)C(C)NC)C3)c2)CCC2CCC(C(=O)NC(c3ccccc3)c3ccccc3)N2C1=O | 66.4% | 44.7% | 53.5% | 29.4% | 19.7% | 20.8% | 61.6% | 60.3% | 48% | 28% | 18.9% | 18.3% | 67.1% | 53.4% | 43.5% | 28.2% | 17.4% | IC50 (second compound 0.01 µM): 15.7 nM; IC50 (second compound 0.0316 µM): 18.4 nM; viability, T/C (second compound 0.01 µM, first compound 0.00316 µM): 61.2%; viability, T/C (second compound 0.01 µM, first compound 0.01 µM): 57.2%; viability, T/C (second compound 0.01 µM, first compound 0.0316 µM): 38.5%; viability, T/C (second compound 0.01 µM, first compound 0.1 µM): 35.7%; viability, T/C (second compound 0.01 µM, first compound 0.316 µM): 17.7%; viability, T/C (second compound 0.01 µM, first compound 1 µM): 20.2%; viability, T/C (second compound 0.0316 µM, first compound 0.00316 µM): 76.8%; viability, T/C (second compound 0.0316 µM, first compound 0.01 µM): 56.4%; viability, T/C (second compound 0.0316 µM, first compound 0.0316 µM): 46.5%; viability, T/C (second compound 0.0316 µM, first compound 0.1 µM): 26.9%; viability, T/C (second compound 0.0316 µM, first compound 0.316 µM): 25.5%; viability, T/C (second compound 0.0316 µM, first compound 1 µM): 18.8%; viability, T/C [18]: 17.3%
8.11 nM | 9.46 nM | < 3.16 nM | COc1c(OCCCN2CCOCC2)ccc2c3n(c(=NC(=O)c4cnc(N)nc4)nc12)CCN3 + Cc1c(S(C)(=O)=O)c(-c2cc(F)cc(N3CCN(c4ccc(NS(=O)(=O)c5ccc(NC(CCN6CCC(C(=O)OCCCP(=O)(O)O)CC6)CSc6ccccc6)c(S(=O)(=O)C(F)(F)F)c5)cc4)CC3)c2)c(-c2ccc(Cl)cc2)n1C(C)C | 58.2% | 52.3% | 30.2% | 31.4% | 18% | 8.91% | 65.2% | 53.1% | 27.2% | 31.2% | 13.1% | 10.8% | 39.3% | 39.6% | 38.9% | 33.2% | 11% | IC50 (second compound 3.16 µM): < 3.16 nM; IC50 (second compound 10 µM): 173 nM; viability, T/C [18]: 3.88%; viability, T/C (second compound 3.16 µM, first compound 0.00316 µM): 45.4%; viability, T/C (second compound 3.16 µM, first compound 0.01 µM): 50.5%; viability, T/C (second compound 3.16 µM, first compound 0.0316 µM): 39.9%; viability, T/C (second compound 3.16 µM, first compound 0.1 µM): 32%; viability, T/C (second compound 3.16 µM, first compound 0.316 µM): 14%; viability, T/C (second compound 3.16 µM, first compound 1 µM): 2.79%; viability, T/C (second compound 10 µM, first compound 0.00316 µM): 189%; viability, T/C (second compound 10 µM, first compound 0.01 µM): 133%; viability, T/C (second compound 10 µM, first compound 0.0316 µM): 166%; viability, T/C (second compound 10 µM, first compound 0.1 µM): 87.5%; viability, T/C (second compound 10 µM, first compound 0.316 µM): 11.1%; viability, T/C (second compound 10 µM, first compound 1 µM): 7%
